The values below come from patent US7326732B2, “EP2 receptor agonists” (Pharmagene Laboratories Limited, priority 2004, dated 2008).

Some results are limits rather than exact numbers.

Test [1] has as its target T1, human EP2 receptor (Homo sapiens, UniProt P43116).
T1 construct: expressed in transfected cells
Description: Binding ability to human EP receptors ([3H]PGE2 displacement), EP2. The following applies: membranes expressing human EP2; [3H]PGE2 3 nM; Cheng-Prusoff; read-out: pKi (M) EP2 (converted). The gist of the method: (§1)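 Membranes from cells stably expressing human EP2, EP3 or EP4 incubated to equilibrium with [3H]PGE2 and compound at 0.1 to 10 000 nM. Non-specific binding defined with 10 uM PGE2; bound label separated by vacuum filtration and quantified by scintillation counting.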

Test [2] addresses T2, human EP4 receptor (Homo sapiens, UniProt P35408).
T2 construct: expressed in transfected cells
Description: Binding ability to human EP receptors ([3H]PGE2 displacement), EP4. The following applies: membranes expressing human EP4; [3H]PGE2 1 nM; Cheng-Prusoff; read-out: pKi (M) EP4 (converted). The method in brief:
as §1

The target of test [3] is T3, human EP3 receptor (Homo sapiens, UniProt P43115).
T3 construct: expressed in transfected cells
T3 sequence (P43115 1-390): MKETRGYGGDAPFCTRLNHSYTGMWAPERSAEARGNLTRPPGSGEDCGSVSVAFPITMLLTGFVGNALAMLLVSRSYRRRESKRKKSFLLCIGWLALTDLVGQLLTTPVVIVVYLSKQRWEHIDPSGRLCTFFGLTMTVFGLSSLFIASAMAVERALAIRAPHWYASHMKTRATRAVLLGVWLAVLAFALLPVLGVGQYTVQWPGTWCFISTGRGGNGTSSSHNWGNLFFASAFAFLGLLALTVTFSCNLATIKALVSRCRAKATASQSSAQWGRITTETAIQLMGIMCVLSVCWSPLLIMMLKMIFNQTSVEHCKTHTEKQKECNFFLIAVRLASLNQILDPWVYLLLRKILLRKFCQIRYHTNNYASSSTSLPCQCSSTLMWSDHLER
Description: Binding ability to human EP receptors ([3H]PGE2 displacement), EP3. The following applies: membranes expressing human EP3; [3H]PGE2 2.5 nM; Cheng-Prusoff; read-out: pKi (M) EP3 (converted). The method in brief:
as §1

For test [4], the target named is T4, human EP2 prostanoid receptors (Homo sapiens, UniProt P43116).
T4 construct: expressed in transfected cells; host or cells: HEK-293
Kind of test: Agonist activity at recombinant human EP2 prostanoid receptors (cAMP in HEK-293 clones). The following applies: for EC50: HEK-293 stably transfected with human EP2, cAMP accumulation, read-out: pEC50 EP2 (converted); for activity (EP2 part): functional classification at EP2. The format is cell-based. On the technique in general: cAMP levels reflect the balance of adenylyl cyclase and phosphodiesterase activity.

In test [5] the target is T5, human EP4 prostanoid receptors (Homo sapiens, UniProt P35408).
T5 construct: expressed in transfected cells; host or cells: HEK-293
Description: Antagonist activity at EP4 prostanoid receptors (PGE2-stimulated cAMP in HEK-293 clones). In kind it is cell-based. The following applies: for Kb: HEK-293 stably transfected with human EP4, 30 min pre-incubation before PGE2, Gaddum-Schild, slope of unity, read-out: pA2 EP4 (converted); for activity (EP4 part): functional classification at EP4, second line of the activity cell. As for the experimental part: Culture media was Minimal essential media (MEM), supplemented with 10% foetal bovine serum, 100 U/ml penicillin, […] streptomycin, 2.5 μg/ml fungizone, 2mM glutamine. Cells were cultured to confluency (3-4 days) prior to use. Culture media was removed, and confluent cells washed three times in MEM. […] Cells were then stimulated by the addition of 25 μl of PGE2 or agonists prepared in assay buffer. In antagonist studies, cells were pre-incubated with compounds for 30 minutes prior to PGE2-mediated stimulation Plates were incubated for 15 min at 37° C., before termination of the reaction by the addition of 25 μl 1M HCl. The plate was then frozen at -20° C. overnight before determination of cAMP concentration. Stimulated cAMP levels were determined by radioligand displacement binding. In brief, plates were thawed rapidly in a waterbath, and the samples neutralised by the addition of 25 μl 1M NaOH. 30 μl was transferred to Millipore plates pre-coated with 0.5% Polyethylenimine (PEI). Samples were diluted by addition of 90 μl cAMP determination buffer (50 mM Tris, 5 mM EDTA, pH 7.0). […] 15 μl of 2 nM (final concentration) [^3H] cAMP, and 15 μl of 3'5'-cAMP protein kinase (8 μg/well final concentration) prepared in cAMP determination buffer containing 0.1% BSA, were added to each well. Plates were incubated on ice for 2 hours, before bound and free radiolabel were separated by vacuum filtration harvesting using the Millipore vacuum manifold, using ice cold water as the termination buffer. The sealing mat was removed from the Millipore plates, and the filters allowed to dry overnight. 50 μl Microscint 0 (Packard Bioscience) was added to each well, and the plate counted using the Micro-Beta Trilux topcount ^3H program. cAMP accumulation was determined from the standard curve, and values calculated in pmoles cAMP/well. Antagonists affinities (pA2 values) were determined assuming a slope of unity and the […]-Schild equation, where pA2=log [concentration ratio-1]-log[antagonist].

T1 sequence (P43116 whole entry): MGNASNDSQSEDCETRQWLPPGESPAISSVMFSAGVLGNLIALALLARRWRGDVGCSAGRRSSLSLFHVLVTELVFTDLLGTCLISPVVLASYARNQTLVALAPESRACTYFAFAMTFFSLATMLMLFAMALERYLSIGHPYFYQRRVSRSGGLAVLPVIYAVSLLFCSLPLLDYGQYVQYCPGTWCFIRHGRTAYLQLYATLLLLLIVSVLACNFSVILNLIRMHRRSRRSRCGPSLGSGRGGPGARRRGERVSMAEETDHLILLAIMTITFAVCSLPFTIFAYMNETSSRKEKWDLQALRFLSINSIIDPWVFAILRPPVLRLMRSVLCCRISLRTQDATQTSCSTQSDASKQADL
T4 sequence (P43116 whole entry): as above
T5 sequence (P35408 whole entry): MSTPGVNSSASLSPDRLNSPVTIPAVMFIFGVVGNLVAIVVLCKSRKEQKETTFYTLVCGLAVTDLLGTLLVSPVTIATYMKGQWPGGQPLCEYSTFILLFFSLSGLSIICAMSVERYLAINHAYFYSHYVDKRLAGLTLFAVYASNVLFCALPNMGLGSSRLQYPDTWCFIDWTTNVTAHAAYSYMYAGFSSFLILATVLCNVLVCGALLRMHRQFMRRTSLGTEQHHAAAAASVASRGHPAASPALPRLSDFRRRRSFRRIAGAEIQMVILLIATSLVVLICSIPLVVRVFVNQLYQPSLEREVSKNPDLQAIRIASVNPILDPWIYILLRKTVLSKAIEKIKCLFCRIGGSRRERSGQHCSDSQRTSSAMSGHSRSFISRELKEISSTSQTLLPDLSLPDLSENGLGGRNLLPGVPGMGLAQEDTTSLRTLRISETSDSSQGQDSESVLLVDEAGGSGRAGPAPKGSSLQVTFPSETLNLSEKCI
T2 sequence (P35408 whole entry): as above

Regarding `O=C(O)c1cc2cc(NC(=O)c3ccc(-c4cccc(Cl)c4)o3)ccc2[nH]1` [Compound 72, 5-{[5-(3-Chloro-phenyl)-furan-2-carbonyl]-amino}-1H-indole-2-carboxylic acid], the Ki is under 1e-06 M in test [1], under 1e-05 M in test [2] and over 1e-05 M in test [3]. For the same compound, the EC50 in test [4] is under 1 µM. Further, in test [4], the “activity (EP2 part)” value is “EP2 agonist/”. In test [5], the Kb was under 1 µM. Further, the “activity (EP4 part)” value in test [5] is listed as “EP4 antagonist”.
Regarding `O=C(O)COc1cccc(NC(=O)c2cccc(-c3cc(Cl)cc(Cl)c3)n2)c1` [Compound 133, (3-{[6-(3,5-Dichloro-phenyl)-pyridine-2-carbonyl]-amino}-phenoxy)-acetic acid], the Ki in test [1] is under 1e-07 M; in test [2], under 1e-06 M; in test [3], over 1e-05 M. Also, the EC50 in test [4] was under 0.1 µM. For the same compound, the “activity (EP2 part)” value in test [4] was “EP2 Agonist/”. Moreover, the Kb in test [5] is under 0.1 µM. The “activity (EP4 part)” value in test [5] is “EP4 Agonist”.
As to `O=C(O)COc1cccc(NC(=O)c2cccc(-c3ccc(Cl)cc3)n2)c1` [Compound 154, (3-{[6-(4-Chloro-phenyl)-pyridine-2-carbonyl]-amino}-phenoxy)-acetic acid], the results for the Ki in test [1], in test [2] and in test [3] were under 1e-07 M, over 1e-05 M and over 1e-05 M, respectively. Moreover, the EC50 in test [4] is under 0.1 µM. Further, the “activity (EP2 part)” value in test [4] is listed as “EP2 Agonist”.
For `O=C(O)/C=C/c1cccc(OCc2csc(-c3ccccc3)n2)c1` [Compound 121, 3-[3-(2-Phenyl-thiazol-4-ylmethoxy)-phenyl]-acrylic acid], the Ki was under 1e-06 M in test [1], over 1e-05 M in test [2] and over 1e-05 M in test [3]. In addition, the EC50 in test [4] was under 1 µM. Besides, the “activity (EP2 part)” value in test [4] was “EP2 Agonist”.
As to `O=C(O)CCc1cccc(NC(=O)c2cccc(-c3cc(Cl)cc(Cl)c3)n2)c1` [Compound 134, 3-(3-{[6-(3,5-Dichloro-phenyl)-pyridine-2-carbonyl]-amino}-phenyl)-propionic acid], the figures for the Ki in test [1], in test [2] and in test [3] were under 1e-07 M, over 1e-05 M and over 1e-05 M, respectively. In addition, the EC50 in test [4] was under 0.1 µM. Besides, the “activity (EP2 part)” value in test [4] is “EP2 Agonist”.
As to `O=C(Nc1cccc(/C=C/c2nnn[nH]2)c1)c1ccc(-c2ccccc2)o1` [Compound 89, 5-Phenyl-furan-2-carboxylic acid {3-[2-(1H-tetrazol-5-yl)-vinyl]-phenyl}-amide], the Ki is under 1e-07 M in test [1], over 1e-05 M in test [2] and over 1e-05 M in test [3]. Further, the EC50 in test [4] is under 0.1 µM. Besides, the “activity (EP2 part)” value in test [4] is listed as “EP2 Agonist”.
With `O=C(O)COc1cccc(NC(=O)c2ccc(-c3ccccc3)o2)c1` [Compound 160, {3-[(5-Phenyl-furan-2-carbonyl)-amino]-phenoxy}-acetic acid], the Ki in test [1] is under 1e-07 M; in test [2], over 1e-05 M; in test [3], over 1e-05 M. In addition, the EC50 in test [4] is under 0.1 µM. For the same compound, the “activity (EP2 part)” value in test [4] is listed as “EP2 Agonist”.
For `O=C(Nc1cccc(Cc2nnn[nH]2)c1)c1cccc(-c2ccc(Cl)cc2)n1` [Compound 95, 6-(4-Chloro-phenyl)-pyridine-2-carboxylic acid [3-(1H-tetrazol-5ylmethyl)-phenyl]-amide], the Ki in test [1] is under 1e-07 M; in test [2], over 1e-05 M; in test [3], over 1e-05 M. For the same compound, in test [4], the EC50 was under 0.1 µM. Also, in test [4], the “activity (EP2 part)” value was “EP2 Agonist”.
For the compound `O=C(O)CCc1cccc(NC(=O)c2ccc(-c3ccc(Cl)cc3)o2)c1` [Compound 147, 3-(3-{[5-(4-Chloro-phenyl)-furan-2-carbonyl]-amino}-phenyl)-propionic acid], the Ki in test [1] was under 1e-07 M; in test [2], over 1e-05 M; in test [3], over 1e-05 M. For the same compound, in test [4], the EC50 was under 0.1 µM. Further, in test [4], the “activity (EP2 part)” value is recorded as “EP2 Agonist”.
As for `O=C(Nc1cccc(/C=C/c2nnn[nH]2)c1)c1ccc(-c2cccc(Cl)c2)o1` [Compound 90, 5-(3-Chloro-phenyl)-furan-2-carboxylic acid {3-[2-(1H-tetrazol-5-yl)-vinyl]-phenyl}-amide], the Ki was under 1e-07 M in test [1], over 1e-05 M in test [2] and over 1e-05 M in test [3]. Also, the EC50 in test [4] is under 0.1 µM. For the same compound, the “activity (EP2 part)” value in test [4] was “EP2 Agonist”.
Regarding `O=C(Nc1cccc(-c2nnn[nH]2)c1)c1ccc(-c2ccccc2)o1` [Compound 177, 5-Phenyl-furan-2-carboxylic acid [3-(1H-tetrazol-5-yl)-phenyl]-amide], the figures for the Ki in test [1], in test [2] and in test [3] were under 1e-06 M, over 1e-05 M and over 1e-05 M, respectively. In test [4], the EC50 was under 1 µM. For the same compound, the “activity (EP2 part)” value in test [4] is given as “EP2 Agonist”.
For the compound `O=C(O)Cc1cccc(NC(=O)c2cccc(-c3cccc(F)c3)n2)c1` [Compound 113, (3-{[6-(3-Fluoro-phenyl)-pyridine-2-carbonyl]-amino}-phenyl)-acetic acid], the Ki is under 1e-07 M in test [1], over 1e-05 M in test [2] and over 1e-05 M in test [3]. Also, in test [4], the EC50 was under 0.1 µM. In test [4], the “activity (EP2 part)” value is “EP2 Agonist”.
Turning to `O=C(Nc1cccc(Cc2nnn[nH]2)c1)c1cccc(-c2ccc(F)cc2)n1` [Compound 93, 6-(4-Fluoro-phenyl)-pyridine-2-carboxylic acid [3-(1H-tetrazol-5ylmethyl)-phenyl]-amide], the Ki in test [1] is under 1e-07 M; in test [2], over 1e-05 M; in test [3], over 1e-05 M. For the same compound, the EC50 in test [4] is under 0.1 µM. Further, the “activity (EP2 part)” value in test [4] is “EP2 Agonist”.
For `O=C(O)Cc1cccc(NC(=O)c2cccc(-c3ccccc3)c2)c1` [Compound 49, {3-[(Biphenyl-3-carbonyl)-amino]-phenyl}-acetic acid], the figures for the Ki in test [1], in test [2] and in test [3] were under 1e-06 M, over 1e-05 M and over 1e-05 M, respectively. Moreover, in test [4], the EC50 is under 0.1 µM. In addition, the “activity (EP2 part)” value in test [4] is given as “EP2 agonist”.
For `O=C(O)Cc1cccc(NC(=O)c2cc(-c3ccccc3)ccc2F)c1` [Compound 51, {3-[(4-Fluoro-biphenyl-3-carbonyl)-amino]-phenyl}-acetic acid], the Ki in test [1] was under 1e-06 M; in test [2] it was over 1e-05 M; in test [3], over 1e-05 M. Further, the EC50 in test [4] was under 0.1 µM. For the same compound, the “activity (EP2 part)” value in test [4] was “EP2 agonist”.
`O=C(O)COc1cccc(NC(=O)c2ccc(-c3ccc(Cl)cc3)o2)c1` [Compound 156, (3-{[5-(4-Chloro-phenyl)-furan-2-carbonyl]-amino}-phenoxy)-acetic acid]: the Ki in test [1] was under 1e-07 M; in test [2] it was over 1e-05 M; in test [3], over 1e-05 M. For the same compound, the EC50 in test [4] was under 0.1 µM. In addition, in test [4], the “activity (EP2 part)” value was “EP2 Agonist”.
Regarding `O=C(O)COc1cccc(NC(=O)c2ccc(-c3ccc(F)cc3)o2)c1` [Compound 157, (3-{[5-(4-Fluoro-phenyl)-furan-2-carbonyl]-amino}-phenoxy)-acetic acid], the Ki was under 1e-07 M in test [1], over 1e-05 M in test [2] and over 1e-05 M in test [3]. Moreover, the EC50 in test [4] was under 0.1 µM. The “activity (EP2 part)” value in test [4] is “EP2 Agonist”.
